# Literature values, collected in patent US20250134912A1 (Theaprin Pharmaceuticals, Inc., priority 2021, published 2025).
# How the values were obtained:
# SARS-COV-2 = details: SARS-COV-2, in vitro
# patients with COVID-19 = details: 31 patients with COVID-19, in comparison to the controlled patients
# [1] = at 25° C.
# [2] = test system: hospitalized patients with COVID-19; details: aspirin used was not an aspirin/theanine cocrystal
# [3] = test system: critically ill children with suspected zinc deficiency; details: in vivo, iv, 0.75 mg/kg/day
compound,measurement,setting,value
"OCCN(CCO)c1nc(N2CCCCC2)c2nc(N(CCO)CCO)nc(N3CCCCC3)c2n1 [dipyridamole, 2,6 bis-(diethanolamino)-4,8 dipiperidino-pyrimido-(5,4-d)pyrimidine]",viral replication in vitro,SARS-COV-2,suppressed
same,clinical outcomes,patients with COVID-19,markedly improved
same,lymphocyte and plasma platelet recovery,patients with COVID-19,increased
same,D-Dimer,patients with COVID-19; P>0.05,significantly decreased
"[Cl-].[Cl-].[Zn+2] [zinc chloride, Zinc chloride]",water solubility,[1],432 g/100 ml water
"CC(=O)Oc1ccccc1C(=O)O [aspirin, acetylsalicylic acid]","mechanical ventilation, ICU admission, and in-hospital mortality",[2],decrease
[Zn] [Elemental zinc],adverse effects,[3],without producing any adverse effects
